# Laboratory results reported in patent US6794396B2, “Substituted pyridines useful for inhibiting cholesteryl ester transfer protein activity” (Pharmacia Corporation, priority 1998, dated 2004).
# Target: T1, CETP (Homo sapiens, UniProt P11597)
# T1 construct: made in house; host or cells: CHO cells (serum-free conditioned medium)
# T1 sequence (P11597 18-493): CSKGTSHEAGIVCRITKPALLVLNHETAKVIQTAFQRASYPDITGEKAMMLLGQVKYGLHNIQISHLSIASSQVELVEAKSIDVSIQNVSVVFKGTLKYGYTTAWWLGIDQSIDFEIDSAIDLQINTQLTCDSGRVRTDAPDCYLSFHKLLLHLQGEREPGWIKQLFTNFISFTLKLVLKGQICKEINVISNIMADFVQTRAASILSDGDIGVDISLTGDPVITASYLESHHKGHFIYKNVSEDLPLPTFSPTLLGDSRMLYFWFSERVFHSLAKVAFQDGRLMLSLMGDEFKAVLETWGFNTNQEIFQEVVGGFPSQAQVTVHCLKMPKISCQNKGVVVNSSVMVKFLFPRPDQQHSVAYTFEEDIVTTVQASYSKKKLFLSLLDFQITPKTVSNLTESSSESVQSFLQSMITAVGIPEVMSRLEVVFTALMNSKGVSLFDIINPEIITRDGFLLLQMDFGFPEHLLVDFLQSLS
# Assay: CETP activity in vitro: transfer of [3H]CE from HDL donor to LDL acceptor particles
# Format: biochemical
# Conditions: IC50, Table 7, compounds of formula T-7
# In short: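 Transfer of radiolabelled cholesteryl ester from HDL to LDL was followed over 2 h at 37 °C in Tris buffer (pH 7.4, 150 mM NaCl, 2 mM EDTA, 1% BSA), using CETP secreted by transfected CHO cells. Radioactivity in dextran sulfate/Mg-precipitated LDL was measured by scintillation counting, giving IC50.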
row,Structure (SMILES),IC50
1,COC(=O)c1c(C(F)F)nc(C(F)(F)F)c(SCc2cccc(Br)c2)c1CC(C)C [Compound 229],50 µM
2,COC(=O)c1c(C(F)F)nc(C(F)(F)F)c(SCc2cccc(OC)c2)c1CC(C)C [Compound 231],50 µM

# Same assay, conditions: Table 6, compounds of formula T-6; read-out: IC50
row,Structure (SMILES),IC50
1,"COC(=O)c1c(C(F)F)nc(C(F)(F)F)c(CSc2ccc(Br)cc2OC(F)(F)F)c1CC(C)C [Compound 206, Methyl 5-[(4-Bromo-2-(trifluoromethoxy)phenyl)thiomethyl]-2-(difluoromethyl)-4-(2-methylpropyl)-6-(trifluoromethyl)-3-pyridinecarboxylate]",50 µM
2,"COC(=O)c1c(C(F)F)nc(C(F)(F)F)c(CSc2ccccc2OC)c1CC(C)C [Compound 208, Methyl 5-[(2-Methoxyphenyl)thiomethyl]-2-(difluoromethyl)-4-(2-methylpropyl)-6-(trifluoromethyl)-3-pyridinecarboxylate]",60 µM
3,"COC(=O)c1c(C(F)F)nc(C(F)(F)F)c(CSc2nc3ccc(C)cc3[nH]2)c1CC(C)C [Compound 209, Methyl 5-[(5-Methylbenzimidazol-2-yl)thiomethyl]-2-(difluoromethyl)-4-(2-methylpropyl)-6-(trifluoromethyl)-3-pyridinecarboxylate]",10 µM
4,"COC(=O)c1c(C(F)F)nc(C(F)(F)F)c(CSc2nc3ccccc3[nH]2)c1CC(C)C [Compound 210, Methyl 5-[(Benzimidazol-2-yl)thiomethyl]-2-(difluoromethyl)-4-(2-methylpropyl)-6-(trifluoromethyl)-3-pyridinecarboxylate]",20 µM
5,"COC(=O)c1c(C(F)F)nc(C(F)(F)F)c(CSc2cccc(OC)c2)c1CC(C)C [Compound 211, Methyl 5-[(3-Methoxyphenyl)thiomethyl]-2-(difluoromethyl)-4-(2-methylpropyl)-6-(trifluoromethyl)-3-pyridinecarboxylate]",45 µM
6,"COC(=O)c1c(C(F)F)nc(C(F)(F)F)c(CSc2nc3ccccc3s2)c1CC(C)C [Compound 212, Methyl 5-[(Benzothiazol-2-yl)thiomethyl]-2-(difluoromethyl)-4-(2-methylpropyl)-6-(trifluoromethyl)-3-pyridinecarboxylate]",15 µM
7,"COC(=O)c1c(C(F)F)nc(C(F)(F)F)c(CSc2cccc(Cl)c2)c1CC(C)C [Compound 213, Methyl 5-[(3-Chlorophenyl)thiomethyl]-2-(difluoromethyl)-4-(2-methylpropyl)-6-(trifluoromethyl)-3-pyridinecarboxylate]",15 µM
8,"COC(=O)c1c(C(F)F)nc(C(F)(F)F)c(CSc2ccccn2)c1CC(C)C [Compound 216, Methyl 5-[(2-Pyridyl)thiomethyl]-2-(difluoromethyl)-4-(2-methylpropyl)-6-(trifluoromethyl)-3-pyridinecarboxylate]",40 µM
9,"COC(=O)c1c(C(F)F)nc(C(F)(F)F)c(CSc2ccccc2Br)c1CC(C)C [Compound 217, Methyl 5-[(2-bromophenyl)thiomethyl]-2-(difluoromethyl)-4-(2-methylpropyl)-6-(trifluoromethyl)-3-pyridinecarboxylate]",50 µM

# Same assay, conditions: Table 7, compounds of formula T-7; read-out: IC50
row,Structure (SMILES),IC50
1,COC(=O)c1c(C(F)F)nc(C(F)(F)F)c(SCc2ccccc2)c1CC(C)C [Compound 219],25 µM
2,COC(=O)c1c(C(F)F)nc(C(F)(F)F)c(SCc2ccc(Cl)cc2)c1CC(C)C [Compound 220],20 µM
3,COC(=O)c1c(C(F)F)nc(C(F)(F)F)c(SCc2ccc(OC)cc2)c1CC(C)C [Compound 221],40 µM
4,COC(=O)c1c(C(F)F)nc(C(F)(F)F)c(SCc2ccc(OCc3ccccc3)c(OCc3ccccc3)c2)c1CC(C)C [Compound 222],15 µM
5,COC(=O)c1c(C(F)F)nc(C(F)(F)F)c(SCc2ccccc2[N+](=O)[O-])c1CC(C)C [Compound 223],50 µM
6,COC(=O)c1c(C(F)F)nc(C(F)(F)F)c(SCc2ccc(OCc3ccccc3)cc2)c1CC(C)C [Compound 224],25 µM
7,COC(=O)c1c(C(F)F)nc(C(F)(F)F)c(SCc2ccc(-c3ccccc3)cc2)c1CC(C)C [Compound 225],10 µM
8,"COC(=O)c1c(C(F)F)nc(C(F)(F)F)c(SCc2ccc3c(c2Cl)OCO3)c1CC(C)C [Compound 226, Methyl 5-[(2-Chloro-3,4-methylenedioxyphenyl)methylthio]-2-(difluoromethyl)-4-(2-methylpropyl)-6-(trifluoromethyl)-3-pyridinecarboxylate]",60 µM
9,COC(=O)c1c(C(F)F)nc(C(F)(F)F)c(SCc2c3ccccc3cc3ccccc23)c1CC(C)C [Compound 227],30 µM
10,COC(=O)c1c(C(F)F)nc(C(F)(F)F)c(SCc2cccc([N+](=O)[O-])c2)c1CC(C)C [Compound 230],50 µM
11,"COC(=O)c1c(C(F)F)nc(C(F)(F)F)c(SCc2ccccn2)c1CC(C)C [Compound 233, Methyl 5-[(2-pyridyl)methylthio]-2-(difluoromethyl)-4-(2-methylpropyl)-6-(trifluoromethyl)-3-pyridinecarboxylate]",60 µM
12,COC(=O)c1c(C(F)F)nc(C(F)(F)F)c(SCc2ccc(C(F)(F)F)cc2C(F)(F)F)c1CC(C)C [Compound 234],20 µM
13,COC(=O)c1c(C(F)F)nc(C(F)(F)F)c(SCc2ccc(OC(F)(F)F)cc2)c1CC(C)C [Compound 235],30 µM
14,COC(=O)c1c(C(F)F)nc(C(F)(F)F)c(SCc2ccc(Cl)cc2Cl)c1CC(C)C [Compound 237],30 µM
15,COC(=O)c1c(C(F)F)nc(C(F)(F)F)c(SCc2ccccc2Br)c1CC(C)C [Compound 239],45 µM
16,"COC(=O)c1c(C(F)F)nc(C(F)(F)F)c(SCc2ccc3ccccc3n2)c1CC(C)C [Compound 241, Methyl 5-[(2-quinolinyl)methylthio]-2-(difluoromethyl)-4-(2-methylpropyl)-6-(trifluoromethyl)-3-pyridinecarboxylate]",50 µM
17,COC(=O)c1c(C(F)F)nc(C(F)(F)F)c(SCc2cc(Cl)cc(Cl)c2)c1CC(C)C [Compound 243],50 µM
18,COC(=O)c1c(C(F)F)nc(C(F)(F)F)c(SCc2c(F)c(F)c(F)c(F)c2F)c1CC(C)C [Compound 244],50 µM
19,"COC(=O)c1c(C(F)F)nc(C(F)(F)F)c(SCc2ccc3c(c2)C(C)(C)CCC3(C)C)c1CC(C)C [Compound 245, Methyl 5-[(1,2,3,4-tetrahydro-1,1,4,4-tetramethyl-6-naphthyl)methylthio]-2-(difluoromethyl)-4-(2-methyl-propyl)-6-(trifluoromethyl)-3-pyridinecarboxylate]",30 µM
20,"COC(=O)c1c(C(F)F)nc(C(F)(F)F)c(SCc2cc(Cl)cc3c2OCOC3)c1CC(C)C [Compound 246, Methyl 5[(6-chloro-1,3-benzodioxan-8-yl)methylthio]-2-(difluoromethyl)-4-(2-methylpropyl)-6-(trifluoromethyl)-3-pyridinecarboxylate]",30 µM

# Same assay, conditions: Table 8; read-out: IC50
row,Structure (SMILES),IC50
1,Fc1ccc(-c2c(COCc3ccccc3)c(C(F)(F)F)nc(C(F)F)c2C(F)c2ccc(C(F)(F)F)cc2)cc1 (stereo not drawn) [Compound 248],77 µM
2,OCc1c(C(F)(F)F)nc(C(F)F)c(C(F)c2ccc(C(F)(F)F)cc2)c1-c1ccc(F)cc1 (stereo not drawn) [Compound 249],5 µM
3,CCOC(=O)c1c(C(F)(F)F)nc(C(F)F)c(C(F)c2ccc(Cl)cc2)c1-c1ccc(F)cc1 (stereo not drawn) [Compound 250],40 µM
4,O=Cc1c(C(F)F)nc(C(F)(F)F)c(C(F)c2ccc(C(F)(F)F)cc2)c1-c1ccc(F)cc1 (stereo not drawn) [Compound 251],7 µM
5,O=Cc1c(C(F)F)nc(C(F)(F)F)c(COCc2ccccc2)c1-c1ccc(F)cc1 [Compound 252],4.5 µM
6,OCc1c(C(F)(F)F)nc(C(F)F)c(C(F)c2ccc(C(F)(F)F)cc2)c1-c1ccc(F)cc1 (stereo not drawn) [Compound 253],19 µM
7,CCOC(=O)c1c(C(F)(F)F)nc(C(F)F)c(C(F)c2ccc(Cl)cc2)c1-c1ccc(F)cc1 (stereo not drawn) [Compound 254],55 µM
8,O=C(c1ccc(Cl)cc1)c1c(C(F)(F)F)nc(C(F)F)c(CO)c1-c1ccccc1 [Compound 258],15 µM
9,O=C(c1ccc2ccccc2c1)c1c(C(F)(F)F)nc(C(F)F)c(CO)c1-c1ccccc1 [Compound 259],60 µM
10,CC(C)c1ccc(C(=O)c2c(C(F)(F)F)nc(C(F)F)c(CO)c2-c2ccccc2)cc1 [Compound 263],40 µM
11,O=C(c1ccc(Cl)cc1)c1c(C(F)(F)F)nc(C(F)F)c(CO)c1-c1ccccc1 [Compound 264],30 µM
12,CC(C)c1ccc(C(F)c2c(C(F)(F)F)nc(C(F)F)c(CO)c2-c2ccccc2)cc1 (stereo not drawn) [Compound 265],60 µM
13,CC(C)c1ccc(C(O)c2c(C(F)(F)F)nc(C(F)F)c(CO)c2-c2ccccc2)cc1 (stereo not drawn) [Compound 266],> 100 µM
14,CCOC(=O)c1c(C(F)(F)F)nc(C(F)F)c(C(F)c2ccc(Cl)cc2)c1-c1ccccc1 (stereo not drawn) [Compound 267],70 µM
15,CCOC(=O)c1c(C(F)(F)F)nc(C(F)F)c(C(F)c2ccc3ccccc3c2)c1-c1ccccc1 (stereo not drawn) [Compound 268],70 µM
16,OCc1c(C(F)F)nc(C(F)(F)F)c(C(O)c2ccc(Cl)cc2)c1-c1ccccc1 (stereo not drawn) [Compound 269],> 100 µM
17,OCc1c(C(F)F)nc(C(F)(F)F)c(C(O)c2ccc3ccccc3c2)c1-c1ccccc1 (stereo not drawn) [Compound 270],> 100 µM
